# Where two headings read alike, the source gives them in different places.
# Key:
# [1] = in vivo
# Source text: Three scout scans are first acquired to position the subsequent T2 weighted images along the standard anatomical orientations in a reproducible manner. T2 weighted axial images are acquired with multislice fast spin echo (FSE) sequence using TR/TEeff=[…]/80 ms, rapid acquisition with relaxation enhancement (RARE) factor=16, FOV=26 mm, acquisition matrix=256×256, slice thickness 0.6 mm, slice gap=0.1 mm and NEX 28. The in-plane resolution is 100 μm. This sequence is repeated 4 times, for a total imaging time of 60 minutes. The first 15 minutes correspond to pre-gadolinium image, after this time period a delay of 1-2 minutes precede the ip gadolinium injection while the mouse is being imaged. The injection lasts 30 seconds. All images are acquired utilizing the same dynamic range, so there is no risk of rescale.
# An intravascular contrast agent is required to generate a CBV map of the brain. Different contrast agents have been used for CBV mapping in rodents. Most studies to date have relied on intravenous injections for contrast delivery. Because IV delivery is often problematic in rodents, associated with frequent morbidity and even occasional mortality, it is not ideally suited for longitudinal studies imaging rodents repeatedly over time. […]
# [2] = tested on: adult hippocampal neural progenitor cells; settings: in vivo; mediated at least in part by NeuroD (Hao 2004; Hsieh 2004); cited from earlier work
# [3] = gas anesthesia during MRI, cited from earlier work
smiles,measurement,setting,value
"CNC(=O)CN(CCN(CCN(CC(=O)[O-])CC(=O)NC)CC(=O)[O-])CC(=O)[O-].[Gd+3] [gadolinium, gadodiamide]","IP dose above which gadolinium has toxic effects (mainly transient unsteady gait, possibly vertigo)",[1],Above 10 mMol
"CCCC(CCC)C(=O)O [VPA, 2-propylpentanoic acid]",Induction of adult hippocampal neural progenitor cells to differentiate into neurons,[2],induce adult hippocampal neural progenitor cells to differentiate predominantly into neurons
FC(F)OC(Cl)C(F)(F)F (stereo not shown) [isoflurane],Cerebral hemodynamic change produced by anesthetic,[3],none or minimal cerebral hemodynamic changes
same,Cerebral hemodynamic change produced by anesthetic,[3]; listed as Isofluorane,minimal cerebral hemodynamic change

# — US20090246145A1, “Imaging Correlates of Neurogenesis With MRI” (priority 2005, published 2009)
